Source: publication PMC6593445, “Promiscuous terpene synthases from Prunella vulgaris highlight the importance of substrate and compartment switching in terpene synthase evolution” (The New Phytologist, 2019)

Columns and labels:
Experiment in all cases: in vitro TPS assay, GC-MS of products
Format in all cases: biochemical
Conditions in all cases: 10 mM MgCl2, 100 mM KCl, 5 mM DTT, 50 mM HEPES pH 7.2, 30 °C, 4 h
[1] = target: T1, PvTPS2 (Prunella vulgaris, UniProt A0A3S8D7T7)
T1 construct: N-terminal truncation removing 48 aa predicted plastid transit peptide; pET28b+, E. coli C41, Ni-NTA purified; TPS-a subfamily
T1 sequence (A0A3S8D7T7 49-597): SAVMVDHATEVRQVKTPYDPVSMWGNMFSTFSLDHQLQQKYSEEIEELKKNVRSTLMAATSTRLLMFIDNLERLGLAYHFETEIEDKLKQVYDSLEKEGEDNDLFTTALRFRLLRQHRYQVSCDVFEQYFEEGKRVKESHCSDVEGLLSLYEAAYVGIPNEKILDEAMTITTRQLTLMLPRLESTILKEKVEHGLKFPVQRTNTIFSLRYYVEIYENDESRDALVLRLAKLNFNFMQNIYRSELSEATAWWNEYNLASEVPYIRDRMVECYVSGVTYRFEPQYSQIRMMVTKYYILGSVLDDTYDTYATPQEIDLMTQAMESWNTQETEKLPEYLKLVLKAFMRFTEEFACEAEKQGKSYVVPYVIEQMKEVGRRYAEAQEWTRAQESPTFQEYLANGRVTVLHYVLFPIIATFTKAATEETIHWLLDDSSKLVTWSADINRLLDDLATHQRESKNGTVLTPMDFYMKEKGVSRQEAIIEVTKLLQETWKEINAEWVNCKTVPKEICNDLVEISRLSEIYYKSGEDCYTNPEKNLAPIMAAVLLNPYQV

[2] = target: T2, PvHVS (Prunella vulgaris, UniProt A0A3Q8J789)
T2 construct: N-terminal truncation removing 43 aa predicted plastid transit peptide; pET28b+, E. coli C41, Ni-NTA purified; TPS-a diterpene synthase
T2 sequence (A0A3Q8J789 44-599): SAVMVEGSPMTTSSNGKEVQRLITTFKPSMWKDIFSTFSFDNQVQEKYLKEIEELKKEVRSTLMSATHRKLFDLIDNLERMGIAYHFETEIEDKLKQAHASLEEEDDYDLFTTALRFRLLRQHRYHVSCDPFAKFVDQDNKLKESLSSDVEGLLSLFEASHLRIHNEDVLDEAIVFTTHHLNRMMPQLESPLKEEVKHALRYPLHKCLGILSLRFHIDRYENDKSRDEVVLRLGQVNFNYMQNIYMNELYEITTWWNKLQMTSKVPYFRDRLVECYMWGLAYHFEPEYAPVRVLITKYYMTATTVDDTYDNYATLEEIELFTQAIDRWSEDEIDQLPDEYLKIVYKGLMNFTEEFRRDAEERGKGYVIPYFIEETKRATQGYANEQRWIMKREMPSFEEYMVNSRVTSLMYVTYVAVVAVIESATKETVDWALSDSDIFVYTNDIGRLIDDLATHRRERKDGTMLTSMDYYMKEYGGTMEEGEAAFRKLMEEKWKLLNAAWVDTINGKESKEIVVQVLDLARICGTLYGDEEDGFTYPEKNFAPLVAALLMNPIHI

[3] = target: T3, PvTPS5 (Prunella vulgaris, UniProt A0A3S8D7W9)
T3 construct: full length, cytosolic (no transit peptide); pET28b+, E. coli C41, Ni-NTA purified; TPS-a subfamily
T3 sequence (A0A3S8D7W9 1-555): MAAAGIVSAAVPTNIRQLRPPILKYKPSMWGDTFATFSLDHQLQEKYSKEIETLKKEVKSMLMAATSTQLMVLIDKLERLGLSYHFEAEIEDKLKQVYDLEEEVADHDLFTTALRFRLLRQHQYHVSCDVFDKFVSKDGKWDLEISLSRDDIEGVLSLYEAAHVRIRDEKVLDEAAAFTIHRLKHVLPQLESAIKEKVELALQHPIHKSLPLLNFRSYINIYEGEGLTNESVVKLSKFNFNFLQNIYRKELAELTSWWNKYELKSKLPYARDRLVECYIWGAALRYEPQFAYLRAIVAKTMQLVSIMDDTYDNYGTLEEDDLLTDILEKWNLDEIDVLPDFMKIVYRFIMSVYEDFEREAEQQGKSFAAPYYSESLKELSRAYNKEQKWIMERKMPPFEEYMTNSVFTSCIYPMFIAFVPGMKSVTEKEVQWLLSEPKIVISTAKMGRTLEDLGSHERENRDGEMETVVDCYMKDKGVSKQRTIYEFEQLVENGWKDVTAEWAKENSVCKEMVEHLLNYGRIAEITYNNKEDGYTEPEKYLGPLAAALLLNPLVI

[4] = target: T4, PvTPS4 (Prunella vulgaris, UniProt A0A3S8D7W5)
T4 construct: full length, cytosolic (no transit peptide); pET28b+, E. coli C41, Ni-NTA purified; TPS-a subfamily
T4 sequence (A0A3S8D7W5 entry or part of it): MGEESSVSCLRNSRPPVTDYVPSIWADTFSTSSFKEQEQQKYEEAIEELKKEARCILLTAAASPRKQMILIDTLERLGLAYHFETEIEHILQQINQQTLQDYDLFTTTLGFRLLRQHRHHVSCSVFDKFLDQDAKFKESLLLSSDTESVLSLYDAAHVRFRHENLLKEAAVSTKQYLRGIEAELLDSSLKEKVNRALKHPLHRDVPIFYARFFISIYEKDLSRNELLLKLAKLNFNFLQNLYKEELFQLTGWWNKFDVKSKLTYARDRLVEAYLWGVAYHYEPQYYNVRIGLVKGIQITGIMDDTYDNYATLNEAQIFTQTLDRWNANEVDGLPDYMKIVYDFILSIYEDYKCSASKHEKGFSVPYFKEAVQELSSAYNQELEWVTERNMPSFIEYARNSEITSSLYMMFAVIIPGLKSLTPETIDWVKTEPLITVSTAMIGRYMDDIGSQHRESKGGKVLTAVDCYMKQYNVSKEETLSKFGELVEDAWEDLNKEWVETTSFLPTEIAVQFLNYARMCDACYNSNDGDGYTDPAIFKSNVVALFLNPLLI

Row | Structure (SMILES) | in vitro TPS assay, GC-MS of products [1] | in vitro TPS assay, GC-MS of products [2] | in vitro TPS assay, GC-MS of products [3] | in vitro TPS assay, GC-MS of products [4]
1 | CC(C)=CCC/C(C)=C/CC/C(C)=C/COP(=O)(O)OP(=O)(O)O [(E,E)‐FPP] | All four enzymes were active against (E,E)‐FPP both in vitro, and in N. benthamiana | All four enzymes were active against (E,E)‐FPP both in vitro, and in N. benthamiana | All four enzymes were active against (E,E)‐FPP both in vitro, and in N. benthamiana | All four enzymes were active against (E,E)‐FPP both in vitro, and in N. benthamiana
2 | CC(C)=CCC/C(C)=C/CC/C(C)=C/CC/C(C)=C/COP(=O)(O)OP(=O)(O)O [GGPP] | Only PvTPS2 and PvHVS were active in vitro and in N. benthamiana against GGPP | Only PvTPS2 and PvHVS were active in vitro and in N. benthamiana against GGPP | – | –
3 | CC(C)=CCC/C(C)=C\COP(=O)(O)OP(=O)(O)O [NPP] | – | – | all four enzymes were found to catalyse cyclisation of NPP | all four enzymes were found to catalyse cyclisation of NPP
